From US20240217936A1, “5-BENZY[…] AND PREPARATION METHOD THEREFOR AND USE THEREOF” (WEST CHINA HOSPITAL, SICHUAN UNIVERSITY, priority 2021, published 2024)
Counter-ions that a name gives are not always drawn.

Tests used:
[1] = Degradation of prodrug in rat plasma (release of dexmedetomidine, HPLC); type: in vitro ADME; details: 37° C.
Description: The test prodrug was formulated as a 1 mg/mL of physiological saline solution, and then 100 μL of the prodrug solution was added to 900 μL of rat plasma. The test solution was vortexed for 30 s before incubation at 37° C. 50 μL of drug-containing plasma was collected at 0.5 min, 1 min, 2 min, 3 min, 5 min, 10 min, 15 min, 20 min, 30 min, and 60 min, respectively, to which was immediately added 150 μL of acetonitrile to terminate the enzymatic reaction, followed by adding the solution of internal standard telmisartan in methanol (30 μL, 20 μg/mL). Then, the resultant solution was centrifuged at 20000 rpm and 4° C. for 10 min. 100 μL of the supernatant was injected for detection by HPLC, and the concentration of dexmedetomidine was determined by an internal standard method. The degradation rate of the prodrug was calculated based on the concentration of dexmedetomidine. The chromatographic conditions are: Swell XDB C18 column (150 mm×4.6 mm, 5 μm); column temperature 30° C.; using gradient elution (see Table 1), mobile phase A: methanol, mobile phase B: 0.1% trifluoroacetic acid in water, and mobile phase C: acetonitrile; detection wavelength: 220 nm; flow rate: 1.0 mL/min; injection volume: 30 μL; retention time: 4.7 minutes for dexmedetomidine and 6.7 minutes for internal standard telmisartan. The linear range of dexmedetomidine: 2.5-100 μg/mL. Instruments: Waters 2695 high-performance liquid chromatograph, Waters 2996 photodiode array detector.

[2] = tested on: Male SD rats; test: Hypnotic effect after tail vein injection (loss of righting reflex); type: in vivo, rat; details: for ED50: Rattus norvegicus, 50% of the dose for the disappearance of righting reflex in rats, tail vein injection; for Onset time: tail vein injection of 2× ED50, loss of righting reflex; for Onset time / Duration: rats; for Duration: tail vein injection of 2× ED50, until recovery of righting reflex
Description: Male SD rats, weighing 250-300 g, were randomly divided into groups, with 10 rats in each group. […] The onset times and the duration of hypnosis were recorded.

[3] = tested on: Male SD rats; test: Blood pressure change after tail vein injection (mean arterial pressure); details: dosage 2× ED50, injection within 15 seconds, 60 min recording, rats under isoflurane
Description: Male SD rats weighing 250-300 g were randomly divided into groups, with 10 rats in each group. General anesthesia was maintained by inhaling isoflurane. By intubating via femoral artery, blood pressure was monitored using the BL-420N biological signal collection and analysis system. minutes after blood pressure stabilization, the baseline mean arterial pressure (MAP0) was measured. Subsequently, the physiological saline solution of each test drug was injected via the tail vein (the dosage of each drug was the same as that in Experiment example 2, with a unified injection […] volume of 1 mL). […] All prodrug molecules were injected within 15 seconds. After injection of each drug, the change in blood pressure was continuously recorded for 60 min. […] The difference MAPΔ+ between the baseline mean arterial pressure (MAP0) and the highest mean arterial pressure (MAPmax) during the 60 min measurement time was calculated; the difference MAPΔ− between the baseline mean arterial pressure (MAP0) and the lowest mean arterial pressure (MAPmin) during the 60 min measurement time was also obtained; both of the difference values were used to calculate the maximum increase rate of mean arterial pressure +Δ%=MAPΔ+/MAP0*100% and the maximum decrease rate of mean arterial pressure −Δ%=MAPΔ−/MAP0*100%, respectively. The maximum increase rate of mean arterial pressure +Δ% and the maximum decrease rate −Δ% reflect the degree of blood pressure change that the body experienced after administration. The larger the value, the greater the blood pressure change that the body experienced.

[4] = tested on: Male SD rats; test: Sedative and hypnotic effects after oral administration (gavage, righting reflex); type: in vivo, rat; details: gavage, 0.16 μmoL/kg; for Onset time: disappearance of righting reflex; for Duration: until recovery of righting reflex
Description: Each test drug was administered by gavage, at a dosage of 0.16 μmoL/kg for each drug. After gavage, the disappearance of the righting reflex was used as a sign of the hypnotic effect induced by the drug, and the recovery of the righting reflex was used as a sign of drug failure. The onset time and duration of the drug were observed.

Structure (SMILES) | Degradation rate of prodrug % ([1]; 0.5 min) [%] | Degradation rate of prodrug % ([1]; 1 min) [%] | Degradation rate of prodrug % ([1]; 2 min) [%] | Degradation rate of prodrug % ([1]; 3 min) [%] | Degradation rate of prodrug % ([1]; 5 min) [%] | ED50 [2] [mg/kg] | Onset time [2] [min] | Duration [2] [min] | +Δ % (The maximum increase rate of blood pressure) [3] | −Δ % (The maximum decrease rate of blood pressure) [3] [%] | Onset time [4] [min] | Duration [4] [min]
Cc1cccc([C@H](C)c2cn(C(=O)OCC(C)C)cn2)c1C [Compound 4-HCl] | 31 | 86 | 97 | 100 | 100 | 0.038 | 2.3 ± 0.9 | 44 ± 8 | 34 ± 14% | 38 ± 9 | 14 ± 8 | 20 ± 13
CC(=O)OCn1cnc([C@@H](C)c2cccc(C)c2C)c1 [Compound 1-HCl] | 33 | 68 | 95 | 100 | – | 0.035 | 3.9 ± 1.5 | 42 ± 9 | *25 ± 12% | 43 ± 10 | 15 ± 6 | 17 ± 8
